Series [1] can be described thus: Metabolic stability in mouse liver microsomes assessed as intrinsic clearance measured up to 60 mins by LC-MS/MS analysis. The series is classed as ADME, Microsome. Particulars: 1 h. For orientation: Liver microsomes are vesicles of endoplasmic reticulum, rich in cytochrome P450 enzymes.
For a further series, the target named is Cytochrome P450 2C19 (Homo sapiens, UniProt P33261). Briefly: Inhibition of human liver microsomes CYP2C19 measured after 10 mins incubation by LC-MS analysis. Type of series: ADME, Microsome.
Chain of Cytochrome P450 2C19 (P33261 whole entry): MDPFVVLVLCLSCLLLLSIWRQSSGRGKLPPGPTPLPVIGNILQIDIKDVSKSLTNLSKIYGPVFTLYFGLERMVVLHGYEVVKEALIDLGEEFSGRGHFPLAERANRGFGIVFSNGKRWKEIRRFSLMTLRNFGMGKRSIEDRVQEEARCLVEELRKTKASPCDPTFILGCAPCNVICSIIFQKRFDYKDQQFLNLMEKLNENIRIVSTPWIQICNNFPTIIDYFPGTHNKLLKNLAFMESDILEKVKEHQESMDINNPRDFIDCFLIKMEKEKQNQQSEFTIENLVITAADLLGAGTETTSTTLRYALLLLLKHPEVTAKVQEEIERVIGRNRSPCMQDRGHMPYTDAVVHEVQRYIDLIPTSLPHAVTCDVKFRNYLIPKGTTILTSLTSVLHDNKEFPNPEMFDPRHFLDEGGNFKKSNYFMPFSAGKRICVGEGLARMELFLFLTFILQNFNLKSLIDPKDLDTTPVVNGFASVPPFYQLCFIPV
Series [2] can be described thus: Metabolic stability in human liver microsomes assessed as intrinsic clearance measured up to 60 mins by LC-MS/MS analysis. Type of series: ADME, Microsome. Conditions: 1 h.
Series [3] relates to Hippocampal neurone. Briefly: Rescuing beta-amyloid induced neuronal cell damage in Sprague-Dawley rat primary hippocampal cell culture (composed of 60% primary neuron, 20% microglia and 20% astrocyte) assessed as decrease in soluble oligomeric Abeta-containing media (7PA2 cells) induced functional synapses by measuring decrease in PSD95 clustering level at 100 nM. The series is classed as cell-based.

The target of series [4] is T1, Short transient receptor potential channel 6 (Homo sapiens) (UniProt Q9Y210).
T1 sequence (whole entry): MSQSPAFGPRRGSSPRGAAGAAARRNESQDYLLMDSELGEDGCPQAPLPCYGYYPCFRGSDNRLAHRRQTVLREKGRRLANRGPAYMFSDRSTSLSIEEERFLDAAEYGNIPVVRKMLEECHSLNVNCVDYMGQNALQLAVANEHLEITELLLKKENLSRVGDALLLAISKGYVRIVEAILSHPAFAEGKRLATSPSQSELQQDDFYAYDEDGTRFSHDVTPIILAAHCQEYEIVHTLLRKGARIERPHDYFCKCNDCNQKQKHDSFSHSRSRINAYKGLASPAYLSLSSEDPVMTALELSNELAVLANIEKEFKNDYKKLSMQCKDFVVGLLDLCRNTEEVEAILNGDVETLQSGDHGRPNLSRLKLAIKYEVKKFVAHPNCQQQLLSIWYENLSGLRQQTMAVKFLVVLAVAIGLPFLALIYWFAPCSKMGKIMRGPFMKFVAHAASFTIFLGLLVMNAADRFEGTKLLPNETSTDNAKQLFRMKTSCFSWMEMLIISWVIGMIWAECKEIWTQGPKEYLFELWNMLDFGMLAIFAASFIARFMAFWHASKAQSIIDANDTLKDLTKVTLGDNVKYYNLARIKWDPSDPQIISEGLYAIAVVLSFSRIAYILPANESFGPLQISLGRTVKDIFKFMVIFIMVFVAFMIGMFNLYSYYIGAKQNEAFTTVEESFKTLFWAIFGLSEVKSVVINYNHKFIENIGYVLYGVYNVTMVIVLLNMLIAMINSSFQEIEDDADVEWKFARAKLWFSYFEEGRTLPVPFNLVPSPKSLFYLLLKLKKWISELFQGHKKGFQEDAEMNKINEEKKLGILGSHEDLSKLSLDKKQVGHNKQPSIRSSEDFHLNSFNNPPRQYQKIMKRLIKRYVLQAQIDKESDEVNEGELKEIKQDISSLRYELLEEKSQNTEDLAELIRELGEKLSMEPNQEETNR
Briefly: Antagonist activity at human TRPC6 expressed in HEK293 cells assessed as inhibition of carbachol-induced activity at 10 uM measured after 48 hrs by Whole-cell patch clamp electrophysiology. The series is classed as cell-based. (In general: In patch-clamp work, channel activity is measured electrically.)

Series [5] concerns the target Short transient receptor potential channel 1 (Rattus norvegicus) (UniProt Q9QX01). Kind of series: Antagonist activity at rat TRPC1 expressed in HEK293 cells assessed as inhibition of carbachol-induced activity at 10 uM measured after 48 hrs by Whole-cell patch clamp electrophysiology. The series is classed as cell-based.
A short description of series [6]: Kinetic solubility of the compound in ph 7.4 PBS buffer measured after 24 hrs shaken by HPLC and UPLC system. The series is classed as physicochemical. Particulars: read-out: Kinetic_solubility.
Series [7] addresses Transient receptor potential cation channel subfamily M member 8 (Rattus norvegicus) (UniProt Q8R455). Briefly: Antagonist activity at rat TRPM8 expressed in HEK293 cells assessed as inhibition of carbachol-induced activity at 10 uM measured after 48 hrs by Whole-cell patch clamp electrophysiology. Type of series: cell-based.
Series [8] relates to Hippocampal neurone. Briefly: Rescuing beta-amyloid induced neuronal cell damage in Sprague-Dawley rat primary hippocampal cell culture (composed of 60% primary neuron, 20% microglia and 20% astrocyte) assessed as decrease in soluble oligomeric Abeta-containing media (7PA2 cells) induced microgliosis (Iba1) at 500 nM by immunostaining analysis. The series is classed as functional, cell-based.

The next series deals with Cytochrome P450 3A4 (Homo sapiens, UniProt P08684). Kind of series: Inhibition of human liver microsomes CYP3A4-M measured after 10 mins incubation by LC-MS analysis. The series is classed as ADME, Microsome.
Chain of Cytochrome P450 3A4 (P08684 whole entry): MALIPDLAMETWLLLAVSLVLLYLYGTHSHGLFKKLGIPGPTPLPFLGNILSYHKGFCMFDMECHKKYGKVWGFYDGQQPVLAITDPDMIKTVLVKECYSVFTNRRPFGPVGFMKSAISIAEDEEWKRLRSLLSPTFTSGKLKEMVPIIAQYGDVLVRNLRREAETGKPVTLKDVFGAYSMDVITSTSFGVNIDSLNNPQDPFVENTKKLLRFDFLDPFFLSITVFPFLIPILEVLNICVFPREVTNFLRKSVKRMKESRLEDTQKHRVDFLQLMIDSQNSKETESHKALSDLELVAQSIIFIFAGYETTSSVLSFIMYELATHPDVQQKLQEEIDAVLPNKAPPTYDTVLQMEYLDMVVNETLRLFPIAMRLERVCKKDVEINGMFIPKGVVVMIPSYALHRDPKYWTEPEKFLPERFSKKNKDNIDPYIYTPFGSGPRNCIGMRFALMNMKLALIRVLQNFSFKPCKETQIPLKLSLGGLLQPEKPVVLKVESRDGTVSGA
Series [9] relates to Hippocampal neurone. Kind of series: Rescuing beta-amyloid induced neuronal cell damage in Sprague-Dawley rat primary hippocampal cell culture (composed of 60% primary neuron, 20% microglia and 20% astrocyte) assessed as decrease in soluble oligomeric Abeta-containing media (7PA2 cells) induced synaptic toxicity at 100 nM. The series is classed as functional, cell-based.

In brackets after ≈: the same amount, converted by molar mass. Activity calls are given as the source filed them. The rule behind the calls is not given here.

In general, IC50 refers to the concentration that gives 50% inhibition. A low value points to higher potency.

Chain of Transient receptor potential cation channel subfamily M member 8 (Rattus norvegicus) (Q8R455 whole entry, looked up): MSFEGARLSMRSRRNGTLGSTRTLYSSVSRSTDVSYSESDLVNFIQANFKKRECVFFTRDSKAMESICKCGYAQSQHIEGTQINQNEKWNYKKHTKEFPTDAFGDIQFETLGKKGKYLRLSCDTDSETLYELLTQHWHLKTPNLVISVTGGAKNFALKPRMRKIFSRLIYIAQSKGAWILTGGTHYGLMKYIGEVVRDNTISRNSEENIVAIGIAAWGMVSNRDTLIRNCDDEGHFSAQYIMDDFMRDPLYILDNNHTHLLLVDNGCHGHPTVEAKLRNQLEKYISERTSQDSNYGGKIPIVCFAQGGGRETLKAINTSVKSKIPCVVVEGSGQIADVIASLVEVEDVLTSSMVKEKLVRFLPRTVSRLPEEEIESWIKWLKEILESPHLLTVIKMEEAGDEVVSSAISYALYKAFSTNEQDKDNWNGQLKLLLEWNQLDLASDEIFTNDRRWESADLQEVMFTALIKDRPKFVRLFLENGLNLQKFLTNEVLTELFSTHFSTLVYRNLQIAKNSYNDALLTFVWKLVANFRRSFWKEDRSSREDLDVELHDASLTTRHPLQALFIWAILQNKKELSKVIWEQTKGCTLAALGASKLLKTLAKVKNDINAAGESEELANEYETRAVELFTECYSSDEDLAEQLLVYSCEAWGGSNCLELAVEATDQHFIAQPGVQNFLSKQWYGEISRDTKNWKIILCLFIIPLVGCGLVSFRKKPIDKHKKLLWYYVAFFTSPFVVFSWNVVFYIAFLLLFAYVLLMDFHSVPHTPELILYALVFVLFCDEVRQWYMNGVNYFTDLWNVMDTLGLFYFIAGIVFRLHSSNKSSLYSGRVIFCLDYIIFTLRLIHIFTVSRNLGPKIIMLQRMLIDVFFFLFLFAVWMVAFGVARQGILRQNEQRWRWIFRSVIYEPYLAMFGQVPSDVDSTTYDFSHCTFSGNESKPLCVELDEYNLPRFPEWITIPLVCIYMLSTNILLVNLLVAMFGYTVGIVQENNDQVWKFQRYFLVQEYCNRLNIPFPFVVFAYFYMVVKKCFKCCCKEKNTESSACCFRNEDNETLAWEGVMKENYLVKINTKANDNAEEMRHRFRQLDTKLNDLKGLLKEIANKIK
Chain of Short transient receptor potential channel 1 (Rattus norvegicus) (Q9QX01 whole entry): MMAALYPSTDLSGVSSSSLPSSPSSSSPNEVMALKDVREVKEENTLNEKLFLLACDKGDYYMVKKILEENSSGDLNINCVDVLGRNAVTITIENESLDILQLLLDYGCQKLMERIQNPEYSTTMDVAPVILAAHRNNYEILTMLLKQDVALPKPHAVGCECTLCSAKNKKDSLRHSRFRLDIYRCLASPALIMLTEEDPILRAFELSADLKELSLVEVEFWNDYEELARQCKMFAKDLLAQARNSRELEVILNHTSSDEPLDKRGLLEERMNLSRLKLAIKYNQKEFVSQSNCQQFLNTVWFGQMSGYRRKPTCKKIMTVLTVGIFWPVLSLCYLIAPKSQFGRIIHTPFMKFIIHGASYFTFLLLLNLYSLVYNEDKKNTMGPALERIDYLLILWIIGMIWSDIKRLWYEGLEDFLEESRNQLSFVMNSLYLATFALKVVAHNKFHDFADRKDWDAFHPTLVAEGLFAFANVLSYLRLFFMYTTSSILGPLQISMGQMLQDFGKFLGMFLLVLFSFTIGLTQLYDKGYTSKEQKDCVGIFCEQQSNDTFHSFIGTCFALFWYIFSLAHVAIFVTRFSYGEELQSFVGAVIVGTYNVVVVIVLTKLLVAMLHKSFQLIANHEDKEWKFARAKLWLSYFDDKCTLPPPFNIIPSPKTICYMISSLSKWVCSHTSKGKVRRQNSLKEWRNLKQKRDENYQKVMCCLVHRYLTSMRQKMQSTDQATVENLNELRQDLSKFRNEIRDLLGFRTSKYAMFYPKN

Consider `CCNCc1cnn(-c2ccc(-n3ccc(Cl)c(Cl)c3=O)cc2)c1C(F)(F)F`, for which the CLH in series [1] amounted to 33 µL/min/mg; in series [2], 3.73 µL/min/mg. Also, the IC50 against Cytochrome P450 2C19 was 41.5 µM; on Cytochrome P450 3A4, > 50 µM. The outcome in the series on Hippocampal neurone [3], in the series with Hippocampal neurone [8] and in the series on Hippocampal neurone [9] was Active. The result in series [4], in series [5] and in series [7] was inactive. Further, the solubility kinetic at 24 h in series [6] was 0.2 µM (≈ 0.0862 µg/mL).

The values are drawn from ChEMBL document CHEMBL6078670, “Discovery of a potent and selective TRPC3 antagonist with neuroprotective effects” (Bioorg Med Chem, 2025).
